What was measured:
Assay in all cases: Differential Scanning Fluorimetry (DSF) Tm shift
Format in all cases: binding
[1] = target: T1, CDK2 + Cyclin A (Homo sapiens, UniProt P24941); settings: CDK2 + Cyclin A; 2 µM protein, 10 µM inhibitor; average of 3 experiments, each in duplicate
T1 construct: CDK2 (P24941); 1–299; His-tag; made in house; host or cells: Escherichia coli

[2] = target: T2, FES Catalytic Domain+SH2 (Homo sapiens, UniProt P07332); settings: 2 µM protein, 10 µM inhibitor, average of 3 experiments, each in duplicate
T2 construct: for 8, we also made a longer version containing one or more additional domains; His-tag; made in house; host or cells: Escherichia coli

[3] = target: T3, CDK2 + Cyclin E (Homo sapiens, UniProt P24941); settings: CDK2 + Cyclin E; 2 µM protein, 10 µM inhibitor; average of 3 experiments, each in duplicate
T3 construct: CDK2 (P24941); 1–299; His-tag; made in house; host or cells: Escherichia coli

[4] = target: T4, CHK2 Catalytic Domain (Homo sapiens, UniProt O96017); settings: 2 µM protein, 10 µM inhibitor, average of 3 experiments, each in duplicate
T4 construct: For all of them, we expressed and purified the catalytic domain separately; His-tag; made in house; host or cells: Escherichia coli

[5] = target: T5, PAK4 Catalytic Domain (Homo sapiens, UniProt O96013); settings: 2 µM protein, 10 µM inhibitor, average of 3 experiments, each in duplicate
T5 construct: For all of them, we expressed and purified the catalytic domain separately; His-tag; made in house; host or cells: Escherichia coli

[6] = target: T6, PAK4 Catalytic Domain+PBD (Homo sapiens, UniProt O96013); settings: 2 µM protein, 10 µM inhibitor, average of 3 experiments, each in duplicate
T6 construct: for 8, we also made a longer version containing one or more additional domains; His-tag; made in house; host or cells: Escherichia coli

[7] = target: T7, STK3 Catalytic domain+SARAH (Homo sapiens, UniProt Q13188); settings: 2 µM protein, 10 µM inhibitor, average of 3 experiments, each in duplicate
T7 construct: for 8, we also made a longer version containing one or more additional domains; His-tag; made in house; host or cells: Escherichia coli
T7 sequence (Q13188 1-491): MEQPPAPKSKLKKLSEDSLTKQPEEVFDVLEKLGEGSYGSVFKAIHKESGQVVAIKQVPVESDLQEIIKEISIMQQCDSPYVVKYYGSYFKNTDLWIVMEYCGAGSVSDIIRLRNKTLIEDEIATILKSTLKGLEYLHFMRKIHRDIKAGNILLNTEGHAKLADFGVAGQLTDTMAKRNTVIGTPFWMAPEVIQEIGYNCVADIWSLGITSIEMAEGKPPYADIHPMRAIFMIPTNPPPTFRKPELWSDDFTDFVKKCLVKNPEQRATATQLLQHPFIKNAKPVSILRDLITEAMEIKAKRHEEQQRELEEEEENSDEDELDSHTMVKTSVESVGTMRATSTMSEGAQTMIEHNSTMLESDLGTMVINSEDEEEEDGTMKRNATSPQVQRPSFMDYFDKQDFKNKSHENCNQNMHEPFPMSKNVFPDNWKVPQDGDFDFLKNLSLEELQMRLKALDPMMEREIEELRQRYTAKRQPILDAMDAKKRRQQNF

[8] = target: T8, FES Catalytic Domain (Homo sapiens, UniProt P07332); settings: 2 µM protein, 10 µM inhibitor, average of 3 experiments, each in duplicate
T8 construct: For all of them, we expressed and purified the catalytic domain separately; His-tag; made in house; host or cells: Escherichia coli

[9] = target: T9, STK3 Catalytic Domain (Homo sapiens, UniProt Q13188); settings: 2 µM protein, 10 µM inhibitor, average of 3 experiments, each in duplicate
T9 construct: For all of them, we expressed and purified the catalytic domain separately; His-tag; made in house; host or cells: Escherichia coli
T9 sequence (Q13188 27-278 limits assumed): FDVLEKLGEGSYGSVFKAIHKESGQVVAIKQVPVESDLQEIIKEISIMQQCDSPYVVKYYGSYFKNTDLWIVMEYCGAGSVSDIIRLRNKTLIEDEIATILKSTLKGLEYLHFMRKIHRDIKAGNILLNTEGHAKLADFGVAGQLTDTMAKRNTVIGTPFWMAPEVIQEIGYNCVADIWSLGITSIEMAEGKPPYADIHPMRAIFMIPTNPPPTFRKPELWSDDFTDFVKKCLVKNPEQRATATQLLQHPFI

[10] = target: SRC Catalytic Domain (Homo sapiens, UniProt P12931); parameters: For all of them, we expressed and purified the catalytic domain separately; His-tag; made in house; host or cells: Escherichia coli; settings: 2 µM protein, 10 µM inhibitor, average of 3 experiments, each in duplicate
[11] = target: T10, AKT3 Catalytic Domain (Homo sapiens, UniProt Q9Y243); settings: 2 µM protein, 10 µM inhibitor, average of 3 experiments, each in duplicate
T10 construct: AKT3 (Q9Y243); CD; His-tag; made in house; host or cells: Escherichia coli

[12] = target: T11, PAK7 Catalytic Domain (Homo sapiens, UniProt Q9P286); settings: 2 µM protein, 10 µM inhibitor, average of 3 experiments, each in duplicate
T11 construct: For all of them, we expressed and purified the catalytic domain separately; His-tag; made in house; host or cells: Escherichia coli

[13] = target: T12, DMPK Catalytic Domain (Homo sapiens, UniProt Q09013); settings: 2 µM protein, 10 µM inhibitor, average of 3 experiments, each in duplicate
T12 construct: For all of them, we expressed and purified the catalytic domain separately; His-tag; made in house; host or cells: Escherichia coli
T12 sequence (Q09013 71-339 limits assumed): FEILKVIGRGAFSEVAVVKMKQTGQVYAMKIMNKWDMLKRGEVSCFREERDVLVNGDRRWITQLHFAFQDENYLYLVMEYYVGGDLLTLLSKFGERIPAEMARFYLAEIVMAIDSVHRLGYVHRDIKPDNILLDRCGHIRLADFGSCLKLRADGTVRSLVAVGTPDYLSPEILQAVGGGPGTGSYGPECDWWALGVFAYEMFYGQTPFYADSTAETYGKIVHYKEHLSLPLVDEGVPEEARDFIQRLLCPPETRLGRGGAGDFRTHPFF

[14] = target: T13, FAK2 Catalytic Domain (Homo sapiens, UniProt Q14289); settings: 2 µM protein, 10 µM inhibitor, average of 3 experiments, each in duplicate
T13 construct: For all of them, we expressed and purified the catalytic domain separately; His-tag; made in house; host or cells: Escherichia coli

[15] = target: SRC Catalytic Domain+SH2+SH3 (Homo sapiens, UniProt P12931); settings: 2 µM protein, 10 µM inhibitor, average of 3 experiments, each in duplicate
SRC Catalytic Domain+SH2+SH3, sequence (P12931 84-523 limits assumed): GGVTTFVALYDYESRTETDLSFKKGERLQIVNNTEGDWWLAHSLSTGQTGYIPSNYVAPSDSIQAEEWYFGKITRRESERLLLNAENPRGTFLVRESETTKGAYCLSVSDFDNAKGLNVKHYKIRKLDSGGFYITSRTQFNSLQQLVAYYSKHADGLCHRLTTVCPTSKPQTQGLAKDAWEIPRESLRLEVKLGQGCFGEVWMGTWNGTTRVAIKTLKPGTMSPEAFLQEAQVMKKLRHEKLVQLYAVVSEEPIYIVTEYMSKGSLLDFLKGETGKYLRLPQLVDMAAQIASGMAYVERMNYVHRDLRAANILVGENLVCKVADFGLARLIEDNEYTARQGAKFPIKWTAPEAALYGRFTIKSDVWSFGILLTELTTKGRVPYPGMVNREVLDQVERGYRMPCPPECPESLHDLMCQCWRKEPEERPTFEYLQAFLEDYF

T10 sequence (Q9Y243 122-479): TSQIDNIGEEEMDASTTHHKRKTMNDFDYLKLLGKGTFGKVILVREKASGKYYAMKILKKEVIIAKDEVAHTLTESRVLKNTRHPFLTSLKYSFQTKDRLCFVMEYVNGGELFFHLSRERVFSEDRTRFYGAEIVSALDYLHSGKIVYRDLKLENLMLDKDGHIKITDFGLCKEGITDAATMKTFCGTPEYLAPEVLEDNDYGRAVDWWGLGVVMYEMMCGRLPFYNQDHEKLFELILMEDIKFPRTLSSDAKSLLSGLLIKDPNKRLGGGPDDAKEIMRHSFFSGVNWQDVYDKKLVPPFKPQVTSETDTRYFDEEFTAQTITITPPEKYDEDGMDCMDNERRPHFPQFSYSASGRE
T11 sequence (Q9P286 449-700 limits assumed): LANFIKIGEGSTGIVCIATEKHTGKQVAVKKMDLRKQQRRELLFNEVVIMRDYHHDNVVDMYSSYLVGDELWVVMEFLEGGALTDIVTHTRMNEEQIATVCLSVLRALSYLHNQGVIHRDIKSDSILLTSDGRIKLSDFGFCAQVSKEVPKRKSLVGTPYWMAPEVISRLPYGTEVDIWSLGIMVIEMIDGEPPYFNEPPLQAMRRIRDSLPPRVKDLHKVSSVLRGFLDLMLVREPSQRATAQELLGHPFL
T6 sequence (O96013 whole entry, the tested form may be a part): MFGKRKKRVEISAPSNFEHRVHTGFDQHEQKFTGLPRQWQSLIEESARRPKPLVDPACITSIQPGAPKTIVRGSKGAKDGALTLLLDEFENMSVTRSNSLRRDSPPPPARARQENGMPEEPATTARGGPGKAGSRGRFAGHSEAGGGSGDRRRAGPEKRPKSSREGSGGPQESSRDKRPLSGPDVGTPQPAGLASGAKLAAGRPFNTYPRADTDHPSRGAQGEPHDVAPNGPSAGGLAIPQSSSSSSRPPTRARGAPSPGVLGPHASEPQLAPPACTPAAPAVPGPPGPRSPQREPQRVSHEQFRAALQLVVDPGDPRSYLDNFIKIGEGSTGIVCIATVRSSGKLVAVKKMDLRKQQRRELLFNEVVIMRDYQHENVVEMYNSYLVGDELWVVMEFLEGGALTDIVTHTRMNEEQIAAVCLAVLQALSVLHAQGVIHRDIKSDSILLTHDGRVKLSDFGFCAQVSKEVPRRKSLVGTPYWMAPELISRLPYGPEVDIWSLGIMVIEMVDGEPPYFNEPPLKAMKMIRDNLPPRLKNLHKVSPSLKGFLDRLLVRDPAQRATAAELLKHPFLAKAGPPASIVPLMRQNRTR
SRC Catalytic Domain, sequence (P12931 270-523 limits assumed): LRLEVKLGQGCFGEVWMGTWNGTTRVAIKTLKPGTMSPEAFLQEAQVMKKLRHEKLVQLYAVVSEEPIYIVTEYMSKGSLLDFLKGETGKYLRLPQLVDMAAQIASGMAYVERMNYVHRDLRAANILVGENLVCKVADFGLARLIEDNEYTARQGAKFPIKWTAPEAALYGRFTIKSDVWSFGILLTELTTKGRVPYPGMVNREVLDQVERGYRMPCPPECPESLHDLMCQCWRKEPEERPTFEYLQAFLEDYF
T2 sequence (P07332 448-822 limits assumed): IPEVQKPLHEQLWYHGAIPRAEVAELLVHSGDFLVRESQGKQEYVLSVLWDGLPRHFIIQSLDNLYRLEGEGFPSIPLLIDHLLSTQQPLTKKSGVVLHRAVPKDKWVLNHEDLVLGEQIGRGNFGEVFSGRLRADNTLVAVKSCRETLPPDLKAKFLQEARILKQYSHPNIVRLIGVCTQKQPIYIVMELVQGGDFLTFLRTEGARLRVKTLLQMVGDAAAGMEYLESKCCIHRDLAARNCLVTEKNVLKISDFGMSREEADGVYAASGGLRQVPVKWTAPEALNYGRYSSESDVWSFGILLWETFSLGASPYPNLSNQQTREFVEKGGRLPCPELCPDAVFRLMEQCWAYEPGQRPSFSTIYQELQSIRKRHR
T13 sequence (Q14289 425-683 limits assumed): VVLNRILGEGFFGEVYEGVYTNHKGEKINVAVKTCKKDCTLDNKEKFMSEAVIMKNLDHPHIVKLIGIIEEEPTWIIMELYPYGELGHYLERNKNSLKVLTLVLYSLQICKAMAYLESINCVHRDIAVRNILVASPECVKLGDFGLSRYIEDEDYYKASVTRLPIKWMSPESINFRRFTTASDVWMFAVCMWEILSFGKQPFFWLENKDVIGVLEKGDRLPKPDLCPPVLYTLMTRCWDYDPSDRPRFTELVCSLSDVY
T8 sequence (P07332 561-822 limits assumed): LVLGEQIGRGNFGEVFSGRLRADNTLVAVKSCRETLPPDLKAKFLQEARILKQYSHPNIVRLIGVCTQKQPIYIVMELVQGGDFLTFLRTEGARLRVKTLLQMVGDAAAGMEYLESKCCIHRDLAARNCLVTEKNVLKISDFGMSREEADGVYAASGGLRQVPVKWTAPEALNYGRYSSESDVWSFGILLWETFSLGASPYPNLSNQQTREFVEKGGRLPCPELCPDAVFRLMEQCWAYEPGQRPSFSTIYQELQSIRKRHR
T4 sequence (O96017 220-486 limits assumed): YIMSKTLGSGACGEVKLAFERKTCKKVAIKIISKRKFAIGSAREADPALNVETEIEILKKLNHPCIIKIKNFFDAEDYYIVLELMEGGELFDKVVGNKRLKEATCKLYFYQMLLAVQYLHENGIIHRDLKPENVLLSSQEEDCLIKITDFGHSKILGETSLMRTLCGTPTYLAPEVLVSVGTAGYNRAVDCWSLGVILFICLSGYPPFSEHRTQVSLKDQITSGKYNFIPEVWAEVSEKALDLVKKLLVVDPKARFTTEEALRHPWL
T5 sequence (O96013 321-572 limits assumed): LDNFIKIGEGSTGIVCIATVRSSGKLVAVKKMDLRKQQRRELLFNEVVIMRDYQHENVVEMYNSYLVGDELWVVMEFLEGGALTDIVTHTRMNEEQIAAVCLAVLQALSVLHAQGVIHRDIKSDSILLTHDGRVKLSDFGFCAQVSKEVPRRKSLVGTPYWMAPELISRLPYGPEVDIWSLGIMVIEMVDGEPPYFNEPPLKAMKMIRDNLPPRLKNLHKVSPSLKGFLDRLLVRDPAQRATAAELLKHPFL

Melting temperature (Tm) shift [1] [degrees Celcius] | Melting temperature (Tm) shift [2] [degrees Celcius] | Melting temperature (Tm) shift [3] [degrees Celcius] | Melting temperature (Tm) shift [4] [degrees Celcius] | Melting temperature (Tm) shift [5] [degrees Celcius] | Melting temperature (Tm) shift [6] [degrees Celcius] | Melting temperature (Tm) shift [7] [degrees Celcius] | Melting temperature (Tm) shift [8] [degrees Celcius] | Melting temperature (Tm) shift [9] [degrees Celcius] | Melting temperature (Tm) shift [10] [degrees Celcius] | Melting temperature (Tm) shift [11] [degrees Celcius] | Melting temperature (Tm) shift [12] [degrees Celcius] | Melting temperature (Tm) shift [13] [degrees Celcius] | Melting temperature (Tm) shift [14] [degrees Celcius] | Melting temperature (Tm) shift [15] [degrees Celcius] | SMILES
0.3 | 0.4 | 0.2 | 0.5 | 0.2 | 0.4 | 0.4 | 0.5 | 0.2 | 0.1 | 0.1 | 0.1 | 0.1 | 0.2 | 0.2 | O=C1NC(=O)C(=Cc2cccc(C(F)(F)F)c2)S1 [PIM1/2 Kinase Inhibitor V]
4.2 | 1.4 | 0.7 | 2.5 | 3.0 | 2.1 | 4.2 | 3.1 | 2.7 | 0.7 | 1.3 | 1.8 | 3.1 | 1.6 | 0.9 | Cc1ccc([N+](=O)[O-])cc1S(=O)(=O)N(C)N=Cc1cnc2ccc(Br)cn12.Cl.O.O [PI 3-Kα Inhibitor VIII]
0.4 | 0.1 | 0.2 | 0.9 | 0.2 | 0.3 | 0.7 | 0.3 | 0.3 | 0.0 | 0.1 | 0.3 | 1.8 | 0.4 | 0.2 | O=C1Cc2c([nH]c3ccc([N+](=O)[O-])cc23)-c2ccccc2N1 [Alsterpaullone]
2.3 | 0.6 | 1.7 | 1.1 | 2.0 | 5.0 | 0.7 | 2.3 | 1.2 | 0.9 | 0.0 | 1.8 | 0.0 | 0.9 | 0.8 | CC(C)n1cnc2c(Nc3cccc(Cl)c3)nc(NCCO)nc21 [Compound 52]

SMILES | Melting temperature (Tm) shift [1] [degrees Celcius] | Melting temperature (Tm) shift [2] [degrees Celcius] | Melting temperature (Tm) shift [3] [degrees Celcius] | Melting temperature (Tm) shift [4] [degrees Celcius] | Melting temperature (Tm) shift [5] [degrees Celcius] | Melting temperature (Tm) shift [6] [degrees Celcius] | Melting temperature (Tm) shift [7] [degrees Celcius] | Melting temperature (Tm) shift [8] [degrees Celcius] | Melting temperature (Tm) shift [9] [degrees Celcius] | Melting temperature (Tm) shift [10] [degrees Celcius] | Melting temperature (Tm) shift [11] [degrees Celcius] | Melting temperature (Tm) shift [12] [degrees Celcius] | Melting temperature (Tm) shift [13] [degrees Celcius] | Melting temperature (Tm) shift [14] [degrees Celcius] | Melting temperature (Tm) shift [15] [degrees Celcius]
CN(C)CCCn1cc(C2=C(c3c[nH]c4ccccc34)C(=O)NC2=O)c2ccccc21 [Bisindolylmaleimide I] | 1.8 | 0.6 | 0.9 | 4.6 | 1.0 | 0.6 | 2.9 | 0.6 | 1.0 | 0.4 | 0.4 | 0.6 | 3.9 | 0.5 | 0.0
Cl.Cl.NCCNc1ncc(C(N)=O)c(Nc2cccc(C(F)(F)F)c2)n1 [Syk Inhibitor II] | 0.5 | 1.3 | 0.6 | 4.7 | 4.7 | 4.8 | 1.3 | 3.1 | 1.6 | 0.1 | 0.0 | 5.1 | 0.7 | 1.9 | 0.4
CCn1cnc2c(Nc3cccc(Cl)c3)nc(N[C@H]3CCCC[C@H]3N)nc21 [Cdk1 Inhibitor, CGP74514A] | 4.4 | 0.7 | 3.7 | 1.8 | 5.6 | 8.1 | 1.2 | 1.6 | 1.3 | 1.2 | 0.0 | 5.4 | 1.4 | 1.9 | 1.3

Source: publication PMC4051630, “A Comparison of Protein Kinases Inhibitor Screening Methods Using Both Enzymatic Activity and Binding Affinity Determination” (PLoS ONE, 2014)
